# According to ChEMBL document CHEMBL3769371, “1-[(2E)-3-Phenylprop-2-enoyl]-1H-benzimidazoles as anticancer agents: synthesis, crystal structure analysis and binding studies of the most potent anticancer molecule with serum albumin” (Medchemcomm, 2015):
# Assays:
# [1] = Antiproliferative activity against human HCC2998 cells at 10'5 M; format: functional, HCC 2998
# MDA-MB-435 = assay: Cytotoxicity against human MDA-MB-435 cells after 48 hrs by SRB assay; format: functional; settings: MDA-MB-435, 48 h
# [2] = Cytotoxicity against human UO31 cells assessed as cell growth at 10^-5 M after 48 hrs by SRB assay; format: functional; settings: UO-31, 48 h, read-out: Activity
# Albumin [3] = biological target: T1, Albumin (Homo sapiens, UniProt P02768); assay: Binding affinity to human serum albumin at 0.25 to 2 uM at 303 K by fluorescence microscopic analysis in the presence of phenylbutazone; format: ADME; settings: isolated protein
# T1 sequence (P02768 whole entry): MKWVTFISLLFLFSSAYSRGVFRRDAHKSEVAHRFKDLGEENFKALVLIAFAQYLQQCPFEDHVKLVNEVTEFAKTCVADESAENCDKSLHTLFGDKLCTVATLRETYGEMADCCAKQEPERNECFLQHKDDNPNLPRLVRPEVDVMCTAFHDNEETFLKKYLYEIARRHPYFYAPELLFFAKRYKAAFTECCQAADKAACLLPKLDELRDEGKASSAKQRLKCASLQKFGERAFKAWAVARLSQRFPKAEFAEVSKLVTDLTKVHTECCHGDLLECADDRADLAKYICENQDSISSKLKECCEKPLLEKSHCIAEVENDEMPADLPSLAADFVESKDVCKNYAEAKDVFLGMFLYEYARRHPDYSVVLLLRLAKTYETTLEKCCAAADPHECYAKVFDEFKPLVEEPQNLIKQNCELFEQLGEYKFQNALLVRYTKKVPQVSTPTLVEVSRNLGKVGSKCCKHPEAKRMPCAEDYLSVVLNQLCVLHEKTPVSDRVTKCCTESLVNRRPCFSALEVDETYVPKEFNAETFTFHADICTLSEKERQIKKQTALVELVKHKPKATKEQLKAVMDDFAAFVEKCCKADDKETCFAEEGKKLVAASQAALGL
# Albumin [4] = biological target: T1, Albumin; assay: Binding affinity to human serum albumin assessed as fluorescence quenching in steady state at 0.25 uM at 303 K by fluorescence microscopic analysis; format: ADME; settings: isolated protein
# [5] = Cytotoxicity against human Hs 578T cells after 48 hrs by SRB assay; format: functional
# [6] = Cytotoxicity against human OVCAR3 cells assessed as cell growth at 10^-5 M after 48 hrs by SRB assay; format: functional; settings: OVCAR-3, 48 h, read-out: Activity
# [7] = Antiproliferative activity against human Hs 578T cells at 10'5 M; format: functional
# [8] = Cytotoxicity against human MOLT4 cells assessed as cell growth at 10^-5 M after 48 hrs by SRB assay; format: functional; settings: MOLT-4, 48 h, read-out: Activity
# A498 [9] = assay: Cytotoxicity against human A498 cells after 48 hrs by SRB assay; format: functional; settings: A498, 48 h
# [10] = Cytotoxicity against human SKOV3 cells after 48 hrs by SRB assay; format: functional; settings: SK-OV-3, 48 h
# [11] = Cytotoxicity against human OVCAR4 cells after 48 hrs by SRB assay; format: functional; settings: OVCAR-4, 48 h
# [12] = Cytotoxicity against human Caki1 cells after 48 hrs by SRB assay; format: functional; settings: CAKI-1, 48 h
# A549 [13] = assay: Cytotoxicity against human A549 cells after 48 hrs by SRB assay; format: functional; settings: A549, 48 h
# [14] = Cytotoxicity against human IGROV1 cells after 48 hrs by SRB assay; format: functional; settings: IGROV-1, 48 h
# Albumin [15] = biological target: T1, Albumin; assay: Binding affinity to human serum albumin at 0.25 uM at 303 K by fluorescence microscopic analysis in the presence of Co2+; format: ADME; settings: isolated protein
# [16] = Cytotoxicity against human HCT15 cells assessed as cell growth at 10^-5 M after 48 hrs by SRB assay; format: functional; settings: HCT-15, 48 h, read-out: Activity
# 786-0 = assay: Cytotoxicity against human 786-0 cells assessed as cell growth at 10^-5 M after 48 hrs by SRB assay; format: functional; settings: 786-0, 48 h, read-out: Activity
# NCI-H226 = assay: Cytotoxicity against human NCI-H226 cells assessed as cell growth at 10^-5 M after 48 hrs by SRB assay; format: functional; settings: NCI-H226, 48 h, read-out: Activity
# Albumin [17] = biological target: T1, Albumin; assay: Binding affinity to human serum albumin assessed Stern-Volmer quenching constant at 0.25 to 2 uM at 288 K by fluorescence microscopic analysis; format: ADME; settings: isolated protein
# SN12C [18] = assay: Cytotoxicity against human SN12C cells after 48 hrs by SRB assay; format: functional
# SN12C [19] = assay: Cytotoxicity against human SN12C cells assessed as cell growth at 10^-5 M after 48 hrs by SRB assay; format: functional; settings: read-out: Activity
# [20] = Cytotoxicity against human BT549 cells after 48 hrs by SRB assay; format: functional; settings: BT-549, 48 h
# T47D = assay: Cytotoxicity against human T47D cells assessed as cell growth at 10^-5 M after 48 hrs by SRB assay; format: functional; settings: read-out: Activity
# [21] = Cytotoxicity against human HL-60(TB) cells assessed as cell growth at 10^-5 M after 48 hrs by SRB assay; format: functional; settings: HL-60, 48 h, read-out: Activity
# KM12 = assay: Cytotoxicity against human KM12 cells assessed as cell growth at 10^-5 M after 48 hrs by SRB assay; format: functional; settings: KM12, 48 h, read-out: Activity
# A549 [22] = assay: Cytotoxicity against human A549 cells assessed as cell growth at 10^-5 M after 48 hrs by SRB assay; format: functional; settings: A549, 48 h, read-out: Activity
# [23] = Cytotoxicity against human NCI-ADR-RES cells after 48 hrs by SRB assay; format: functional
# [24] = Cytotoxicity against human LOXIMVI cells after 48 hrs by SRB assay; format: functional; settings: LOX IMVI
# Albumin [25] = biological target: T1, Albumin; assay: Binding affinity to human serum albumin at 0.25 uM at 303 K by fluorescence microscopic analysis in the presence of Zn2+; format: ADME; settings: isolated protein
# [26] = Cytotoxicity against human DU145 cells after 48 hrs by SRB assay; format: functional; settings: DU-145, 48 h
# [27] = Antiproliferative activity against human IGROV1 cells at 10'5 M; format: functional, IGROV-1
# A498 [28] = assay: Cytotoxicity against human A498 cells assessed as cell growth at 10^-5 M after 48 hrs by SRB assay; format: functional; settings: A498, 48 h, read-out: Activity
# Albumin [29] = biological target: T1, Albumin; assay: Binding affinity to human serum albumin at 0.25 uM at 303 K by fluorescence microscopic analysis in the presence of Mn2+; format: ADME; settings: isolated protein
# NCI-H322M = assay: Cytotoxicity against human NCI-H322M cells assessed as cell growth at 10^-5 M after 48 hrs by SRB assay; format: functional; settings: read-out: Activity
# [30] = Cytotoxicity against human BT549 cells assessed as cell growth at 10^-5 M after 48 hrs by SRB assay; format: functional; settings: BT-549, 48 h, read-out: Activity
# [31] = Cytotoxicity against human SNB19 cells after 48 hrs by SRB assay; format: functional; settings: SNB-19, 48 h
# [32] = Cytotoxicity against human UACC62 cells after 48 hrs by SRB assay; format: functional; settings: UACC-62, 48 h
# Albumin [33] = biological target: T1, Albumin; assay: Binding affinity to human serum albumin assessed Stern-Volmer quenching constant at 0.25 to 2 uM at 298 K by fluorescence microscopic analysis; format: ADME; settings: isolated protein
# SK-MEL-28 = assay: Cytotoxicity against human SK-MEL-28 cells after 48 hrs by SRB assay; format: functional; settings: SK-MEL-28, 48 h
# [34] = read-out: LC50 (the source's name)
compound,measurement,setting,value
O=C(/C=C/c1ccccc1)n1c(-c2ccc(Cl)cc2)nc2ccccc21,growth inhibition (GI),[1],94.92%
same,GI50,MDA-MB-435,1900 nM
same,TGI,MDA-MB-435,5.05 µM
same,CC50,MDA-MB-435; [34],19.6 µM
same,growth at 10 µM,[2],-39%
same,K,Albumin [3],3.5 ×10³ /M
same,K,Albumin [4],5.68 ×10³ /mol
same,GI50,[5],2570 nM
same,TGI,[5],17.9 µM
same,CC50,[5]; [34],> 100 µM
same,growth at 10 µM,[6],-57.2%
same,growth inhibition (GI),[7],80.03%
same,growth at 10 µM,[8],21.9%
same,GI50,A498 [9],2050 nM
same,TGI,A498 [9],7.63 µM
same,CC50,A498 [9]; [34],28.4 µM
same,GI50,[10],1490 nM
same,TGI,[10],61.3 µM
same,CC50,[10]; [34],> 100 µM
same,GI50,[11],1110 nM
same,TGI,[11],2640 nM
same,CC50,[11]; [34],6.29 µM
same,GI50,[12],1180 nM
same,TGI,[12],10 µM
same,CC50,[12]; [34],31.7 µM
same,GI50,A549 [13],380 nM
same,TGI,A549 [13],1880 nM
same,CC50,A549 [13]; [34],> 100 µM
same,GI50,[14],1270 nM
same,TGI,[14],2880 nM
same,CC50,[14]; [34],6.53 µM
same,K,Albumin [15],4.09 ×10³ /mol
same,growth at 10 µM,[16],-24.8%
same,growth at 10 µM,786-0,-17.6%
same,growth at 10 µM,NCI-H226,-55.3%
same,KSV,Albumin [17],2.03 ×10⁵ L/mol
same,GI50,SN12C [18],1390 nM
same,TGI,SN12C [18],2760 nM
same,CC50,SN12C [18]; [34],5.46 µM
same,growth at 10 µM,SN12C [19],-48.5%
same,GI50,[20],1670 nM
same,TGI,[20],3.22 µM
same,CC50,[20]; [34],6.18 µM
same,growth at 10 µM,T47D,-4.25%
same,growth at 10 µM,[21],-3.97%
same,growth at 10 µM,KM12,-62.9%
same,growth at 10 µM,A549 [22],-4.99%
same,GI50,[23],750 nM
same,TGI,[23],10.3 µM
same,CC50,[23]; [34],62.1 µM
same,GI50,[24],1600 nM
same,TGI,[24],3.22 µM
same,CC50,[24]; [34],6.5 µM
same,K,Albumin [25],2.26 ×10³ /mol
same,GI50,[26],1800 nM
same,TGI,[26],4.93 µM
same,CC50,[26]; [34],17 µM
same,growth inhibition (GI),[27],89.62%
same,growth at 10 µM,A498 [28],-14.6%
same,K,Albumin [29],3.85 ×10³ /mol
same,growth at 10 µM,NCI-H322M,45%
same,growth at 10 µM,[30],-50.5%
same,GI50,[31],1470 nM
same,TGI,[31],2920 nM
same,CC50,[31]; [34],5.79 µM
same,GI50,[32],1470 nM
same,TGI,[32],3.42 µM
same,CC50,[32]; [34],7.93 µM
same,KSV,Albumin [33],1.37 ×10⁵ L/mol
same,GI50,SK-MEL-28,2100 nM
same,TGI,SK-MEL-28,4.35 µM
same,CC50,SK-MEL-28; [34],9.02 µM
